In one series the test system is H1975 cells. As to the kind of experiment: In vitro cellular inhibitory activity on H1975 (XTT). The following applies: Homo sapiens, NCI-H1975, 72 hours. Format: cell-based. From the text: Table 2 in vitro cellular inhibitory activities on H1975 (NSCLC, nonsmall-cell lung cancer)
The subject of another series is Calu-3 cells. As to the kind of experiment: In vitro cellular inhibitory activity on Calu-3 (XTT). Format: cell-based. The following applies: Homo sapiens, 72 hours. From the text:
Table 3 in vitro cellular inhibitory activities on Calu-3 (NSCLC nonsmall-cell lung cancer)
For orientation: Formazan colour is commonly taken as a measure of viable cells.

Another series concerns A431 cells. In words: In vitro cellular inhibitory activity on A431 (XTT). Format: cell-based. The following applies: Homo sapiens, A-431, 72 h, read-out: IC50 A431 cells.
Series [1] relates to human-derived LN-229 glioblastoma xenograft. As to the kind of experiment: In vivo pharmacodynamic evaluation, human-derived LN-229 glioblastoma xenograft. Set-up: species or system BALB/c nude mice. The conditions noted are these: 28 days after the administration. (In general: Xenograft models place foreign cells or tissue in a host animal.)
A further series has as its system 5637 cells. In words: In vitro cellular inhibitory activity on 5637 bladder carcinoma cells (CTG kit). Format: cell-based. The following applies: Homo sapiens, 72 hours. Here is the method: The effect of the compound to be tested on 5637 (bladder carcinoma) cell proliferation was tested using CTG kit.
535 μl DMSO was added into an EP tube filled with 3.32 mg of Compound 18 and evenly shaken (10 mM);
590 μl DMSO was added into an EP tube filled with 3.16 mg of Compound AZD9291 and evenly shaken (10 mM);
The compound was diluted with DMSO by 4-fold from 10 mM to 2.5 mM, 625 μM, 156 μM, 39 μM, 9.8 μM, 2.4 μM, 0.61 μM, 0.15 μM, 0.04 μM in turn.
Formulating a stock solution of a 10-fold compound: 2 μl 1000-fold Compound 18 or AZD9291 was respectively added into a 198 μl culture medium and evenly shaken.
1) Plating in the 384-well plate with 250 cells/well/22.5 ul;
2) After 24 hours, each well was added with 2.5 ul 10-fold drug which was well diluted to make the final concentration of 10 μM, 2.5 μM, 625 nM, 156 nM, 39 nM, 9.8 nM, 2.5 nM, 0.610 nM, 0.153 nM, 0.04 nM.
3) The plate was placed in the CO2 incubator and incubated at 37° C. for 72 hours
2) Each well was added with 25 ul CellTiter-Glo® agent, mixed for 2 minutes and placed at room temperature while being kept in darkness for 10 minutes.
3) Reading the […] using EnVision 2104 Multilabel Reader.

For another series, the system named is BT474 cells. As to the kind of experiment: In vitro cellular inhibitory activity on BT474 mammary cancer cells (XTT). Format: cell-based. The following applies: Homo sapiens, BT-474, 72 hours.
Another series has as its system NCI-N87 cell. As to the kind of experiment: In vitro cellular inhibitory activity on NCI-N87 gastric carcinoma cells (XTT). Format: cell-based. The following applies: Homo sapiens, read-out: IC50 NCI-N87 cell.
For series [2], the system named is human-derived xenograft model HN2170. As to the kind of experiment: In vivo pharmacodynamic evaluation, head and neck cancer xenograft model HN2170. Set-up: species or system BALB/c nude mice. The following applies: for Tumor Volume (Day 0): Day 0 (grouping, baseline); for T/C / TGI / Tumor Volume: 25 days after the administration. Here is the method: HN2170, head and neck cancer from a patient.
They were administered totally 25 days.

Series [3] concerns SKOV-3 human-derived xenografts model in ovarian cancer. As to the kind of experiment: In vivo pharmacodynamic evaluation, SKOV-3 human-derived xenografts model in ovarian cancer. More on the design: species or system BALB/c nude mice. The following applies: 14 days after the administration. Here is the method:
The tumor was then stripped under sterile conditions to remove the necrotic tissues and select the well developed tumor tissues which were inoculated subcutaneously into an animal again. In this way the tumor tissues were subjected to passage for twice in the body of the mice. […] The tumor blocks were inoculated subcutaneously to the right coastal region of the mice with an inoculation needle. […] The tumor size was measured twice a week with an […] caliper.

Series [4] deals with gallbladder carcinoma xenografts model GL6899. In words: In vivo pharmacodynamic evaluation, gallbladder carcinoma xenografts model GL6899. More on the design: species or system BALB/c nude mice. Here is the method: GL6899, gallbladder carcinoma from a patient
Comparison between the two groups of data was tested by independent sample t test.

In series [5] the test system is human-derived cholangiocarcinoma (10114) xenograft model. In words: In vivo pharmacodynamic evaluation, human-derived cholangiocarcinoma (10114) xenograft model. More on the design: species or system BALB/c nude mice. Here is the method:
10114, cholangiocarcinoma from a patient.
Tumor tissues of human cholangiocarcinoma (10114) were cut into tumor blocks of volume of 3 mm×3 mm×3 mm which were inoculated subcutaneously in mice. The tumor volume was observed and measured. […] The efficacy was evaluated according to the tumor growth inhibition (TGI).
The experimental data were analyzed using statistical software SPSS 20.0. The data associated with the tumor volume was analyzed with T-test. **P<0.05 compared with the control group represents significant statistical difference.

The subject of series [6] is KYSE270 human esophageal carcinoma model. The following applies: for Relative Tumor Volume / T/C / TGI / Tumor Volume: 21 days after the administration.
The mark [7] stands for this setting: 20 mg/kg p.o. once a day, 21 days.
The mark [8] stands for this setting: 20 mg/kg oral once a day, 21 days after the administration.

SMILES strings stand for the structures. Structures can show the parent of a compound that is named as a salt. Where two headings read alike, the source gives them in different places. Marks after values point to notes of the source that are not given here.

Broadly, the T/C is the result in the treated group divided by that in the control group, in per cent.

Method for BT474 cells: BT474 cells (human breast ductal carcinoma cell, purchased from ATCC). […] The maximum concentration of the test compound was 10 μM, and there were 10 concentration gradients in total. For each compound, the operation was duplicated. […] 2) The plate was placed in the CO2 cell incubator and incubated at 37° C. for 72 hours. 2) The culture medium was removed; each well was added with 150 μl XTT working solution. […] 4) Slightly and evenly shaking before reading the absorbance.
Method for NCI-N87 cell: For each compound, the above operation was triplicated. […] 2) The plate was placed in the CO2 incubator and incubated at 37° C. for 72 hours. 2) The culture medium was removed and each well was added with 150 μl XTT working solution. […] 4) Slightly and evenly shaking before reading the absorbance.

Consider `C=CC(=O)Nc1cc2c(Nc3ccc(F)c(Cl)c3)ncnc2cc1OCCCN1CCOCC1` [CI-1033 hydrochloride, reference compound], for which the IC50 with H1975 cells amounted to 157 nM; in the series on Calu-3 cells, 686 nM; in the series with A431 cells, 402 nM.

With `C=CC(=O)Nc1cc2c(Nc3ccc(F)c(Cl)c3)ncnc2cc1OCC[C@@H]1[C@H]2CN(C)C[C@@H]12` [Compound 8], in the series with H1975 cells, the IC50 amounted to 306 nM. In series [1] (30 mg/kg oral once a day), the T/C worked out at 21.3%, the TGI is given as 78.7% and the “Tumor Volume” value was found to be 121 ± 17 mm^3.

On to `C=CC(=O)Nc1cc2c(Nc3ccc(F)c(Cl)c3)ncnc2cc1OCC1CC2(CCN(C)CC2)C1` [Compound 18, N-[4-(3-chloro-4-fluorophenylamino)-7-((7-methyl-7-azaspiro[3.5]nonan-2-yl)methoxy)quinazolin-6-yl]-acrylamide], for which the IC50 with H1975 cells was 92.3 nM; with Calu-3 cells it was 38.2 nM; in the series with 5637 cells, 38.6 nM; in the series on BT474 cells, 9.7 nM; in the series on NCI-N87 cell (NCI-N87, 72 hours, XTT), 7.1 nM. In addition, in series [2] (20 mg/kg group), the “Tumor Volume (Day 0)” value is given as 143.1 ± 22.9 mm^3. In addition, the T/C in series [2] (20 mg/kg oral once a day) is recorded as 6.5%; in [1] (10 mg/kg oral once a day), 45.6%; in series [1] (20 mg/kg oral once a day), 34.0%; in series [3] (10 mg/kg oral once a day), 49.1%; in series [3] (20 mg/kg oral once a day), 32.1%; in [4] (setting [7]) it was 2.6%. Besides, the T/C in series [5] (setting [8]) was 18.1%; in [6] (10 mg/kg oral once a day), 2%; in [6] (20 mg/kg oral once a day), 1%. Further, the TGI in [2] (20 mg/kg oral once a day) was determined as 93.5%; in [1] (10 mg/kg oral once a day), 54.4%; in series [1] (20 mg/kg oral once a day) it was 66.0%; in series [3] (10 mg/kg oral once a day) it was 50.9%; in series [3] (20 mg/kg oral once a day), 67.9%; in [4] (setting [7]), 97.4%. For the same compound, the TGI in series [5] (setting [8]) amounted to 81.9%; in [6] (10 mg/kg oral once a day) it was 98%; in series [6] (20 mg/kg oral once a day), 99%. In addition, the “Tumor Volume” value in series [2] (20 mg/kg oral once a day) is 46.3 ± 10.6*** mm^3; in series [1] (10 mg/kg oral once a day), 260 ± 27 mm^3; in series [1] (20 mg/kg oral once a day), 191 ± 11 mm^3; in series [3] (10 mg/kg oral once a day), 798 ± 88 mm^3; in [3] (20 mg/kg oral once a day), 540 ± 86 mm^3; in series [5] (setting [8]), 107.53 ± 15.80*** mm^3. Also, the “Tumor Volume” value is on record as 40 ± 6 mm^3 in series [6] (10 mg/kg oral once a day) and 14 ± 3 mm^3 in [6] (20 mg/kg oral once a day). The “Tumor Volume on day 0” value in [4] (20 mg/kg group, day 0 (grouping, baseline)) is reported as 135.53 ± 9.60 mm^3. The “Tumor Volume after adminstration of 21 days” value in series [4] (setting [7]) is recorded as 26.63 ± 2.37*** mm^3. Also, the “Tumor Volume On Day 0” value in [5] (20 mg/kg group, Day 0 (grouping, baseline)) is given as 138.6 ± 8.9 mm^3. Further, the “Relative Tumor Volume” value came out at 77.13 ± 9.34% in series [5] (setting [8]), 0.33 ± 0.05 in series [6] (10 mg/kg oral once a day) and 0.11 ± 0.02 in [6] (20 mg/kg oral once a day). For the same compound, the “Tolerability in mice with tumor” value in series [6] (10 mg/kg and 20 mg/kg) is recorded as “can tolerate the tested drugs well”.

`C=CC(=O)Nc1cc2c(Nc3ccc(F)c(Cl)c3)ncnc2cc1OCCC1CC2(CCN(C)CC2)C1` [Compound 19 hydrochloride, N-[4-(3-chloro-4-fluorophenylamino)-7-(2-(7-methyl-7-azaspiro[3.5]nonan-2-yl)ethoxy)quinazolin-6-yl]-acrylamide hydrochloride]: the IC50 in the series with H1975 cells came to 104 nM.

Consider `C#Cc1cccc(Nc2ncnc3cc(OCCOC)c(OCCOC)cc23)c1` [Erlotinib hydrochloride, erlotinib hydrochloride, reference compound], for which the IC50 in the series on H1975 cells worked out at 3980 nM; in the series on Calu-3 cells, 1320 nM.

In the case of `CS(=O)(=O)CCNCc1ccc(-c2ccc3ncnc(Nc4ccc(OCc5cccc(F)c5)c(Cl)c4)c3c2)o1` [Lapatinib ditosylate, lapatinib ditosylate, reference compound], the IC50 in the series with H1975 cells came out at 4530 nM; in the series on Calu-3 cells, 94.3 nM.

Consider `CS(=O)(=O)CCNCc1ccc(-c2ccc3ncnc(Nc4ccc(OCc5cccc(F)c5)c(Cl)c4)c3c2)o1` [Lapatinib, reference compound], for which the IC50 in the series with NCI-N87 cell (NCI-N87, 72 h) came to 11.9 nM. Further, in series [1] (200 mg/kg oral once a day), the T/C stood at 45.6%, the TGI amounted to 54.4% and the “Tumor Volume” value is 261 ± 42 mm^3. In addition, in series [3] (80 mg/kg oral once a day), the T/C was 83.4% and the “Tumor Volume” value was 1339 ± 167 mm^3.

With `CCOc1cc2ncc(C#N)c(Nc3ccc(OCc4ccccn4)c(Cl)c3)c2cc1NC(=O)/C=C/CN(C)C` [Neratinib, reference compound], the “Tumor Volume (Day 0)” value in [2] (80 mg/kg group) is given as 142.4 ± 23.4 mm^3. Also, in series [2] (80 mg/kg oral once a day), the T/C stood at 7.2%, the TGI is given as 92.8% and the “Tumor Volume” value was 53.7 ± 10.3*** mm^3. Besides, in [1] (80 mg/kg oral once a day), the T/C is given as 34.3%, the TGI was found to be 65.7% and the “Tumor Volume” value was found to be 197 ± 20 mm^3.

The values above are taken from patent US10507209B2, “Quinazoline derivatives substituted by aniline, preparation method and use thereof” (XUANZHU PHARMA CO., LTD., priority 2010, dated 2019).
